Measurements reported in patent US4698350A, “1-ethyl-6-fluoro-1,4-dihydro- 7-(2,6-dimethyl-4-pyridinyl)-4-oxo-3-quinolinecarboxylic acid and antibacterial use thereof” (Sterling Drug Inc., priority 1984, dated 1987).
Converted amounts (≈) assume the structure as drawn. Counter-ions that a name gives are not always drawn.

Assays:
Experiment in all cases: In vitro antibacterial MIC/MBC test
Assay type in all cases: cell-based
S. aureus (25923) = conditions: Staphylococcus aureus, ATCC25923, S. aureus ATCC No. 25923; for MBC: read-out: MBC; for MIC: read-out: MIC
Description: (§1) Win 52,522 and Win 35,439 were solubilized in 0.1 ml of 0.5 N NaOH/mg of compound and diluted in sterile distilled water to 160 mcg/ml. Vancomycin and methicillin were solubilized in sterile distilled water to 1250 mcg/ml of base compound. The stock solutions were sterilized by filtration through membrane filters with a 0.45 μm pore size.
(§2) The bacterial cultures listed in Table I (hereinbelow) were grown overnight at 37° C. in MHB for all cultures except the Streptococcus strains. These were grown in BHI+10% NHS. The overnight broth cultures were adjusted to an optical density of 0.10 (650 nm, B L Spectronic 20) in sterile distilled water and subsequently diluted to 6.7×10^6 cells/ml in MHB or BHI+1% NHS.
(§3) Serial two-fold dilutions of the compound solutions were prepared in MHB (or in BHI+1% NHS for tests with Streptococci) and dispensed into 96-well microtiter trays in a volume of 0.1 ml/well using a Sandy Springs (Bellco Glass Co.) dispenser. The trays were then inoculated with 0.0015 ml of a suspension containing 6.7×10^6 cells/ml of the appropriate inoculum using a MIC-2000 inoculator (Dynatech Corp.) resulting in a final inoculum of approximately 1×10^4 cells/well or 1×10^5 cells/ml. The trays were incubated at 37° C. for 18-20 hours and the minimal inhibitory concentration (MIC), defined as the lowest concentration of compound to inhibit visible bacterial growth, was recorded.
(§4) After the MIC values were recorded, the contents in the microtiter trays were thoroughly mixed on a Bellco Mini-orbital Shaker (Bellco Glass Co.) for 3 min. at a setting of 8. A portion (0.0015 ml) from each well was then transferred via an MIC-2000 inoculator to plates containing MHA or BHI agar+10% NHS. The plates were incubated at 37° C. for 18-20 hrs. The minimal bactericidal concentration (MBC), defined as the lowest concentration of compound that prevented the formation of a recognizable colony on the agar surface, was recorded.

S. aureus 10-81 = conditions: Staphylococcus aureus, 1081, S. aureus 10-81; for MBC: read-out: MBC; for MIC: read-out: MIC
Description: as §1, §2, §3, §4

S. aureus 13-8-A = conditions: Staphylococcus aureus, 138A, S. aureus 13-8-A; for MBC: read-out: MBC; for MIC: read-out: MIC
Description: as §1, §2, §3, §4

S. aureus 21-81A = conditions: Staphylococcus aureus, 2181A, S. aureus 21-81A; for MBC: read-out: MBC; for MIC: read-out: MIC
Description: as §1, §2, §3, §4

S. aureus 24-81 = conditions: Staphylococcus aureus, 2481, S. aureus 24-81; for MBC: read-out: MBC; for MIC: read-out: MIC
Description: as §1, §2, §3, §4

S. aureus 34-81 = conditions: Staphylococcus aureus, 3481, S. aureus 34-81; for MBC: read-out: MBC; for MIC: read-out: MIC
Description: as §1, §2, §3, §4

S. aureus 39881 = conditions: Staphylococcus aureus, S. aureus 39881; for MBC: read-out: MBC; for MIC: read-out: MIC
Description: as §1, §2, §3, §4

S. aureus 4-81 = conditions: Staphylococcus aureus, 481, S. aureus 4-81; for MBC: read-out: MBC; for MIC: read-out: MIC
Description: as §1, §2, §3, §4

S. aureus 41-81 = conditions: Staphylococcus aureus, 4181, S. aureus 41-81; for MBC: read-out: MBC; for MIC: read-out: MIC
Description: as §1, §2, §3, §4

S. aureus Glorgio = conditions: Staphylococcus aureus, S. aureus Glorgio; for MBC: read-out: MBC; for MIC: read-out: MIC
Description: as §1, §2, §3, §4

S. aureus S-234 = conditions: Staphylococcus aureus, S234, S. aureus S-234; for MBC: read-out: MBC; for MIC: read-out: MIC
Description: as §1, §2, §3, §4

S. aureus S-500 = conditions: Staphylococcus aureus, S500, S. aureus S-500; for MBC: read-out: MBC; for MIC: read-out: MIC
Description: as §1, §2, §3, §4

S. aureus Smith = conditions: Staphylococcus aureus, S. aureus Smith; for MBC: read-out: MBC; for MIC: read-out: MIC
Description: as §1, §2, §3, §4

S. aureus VA16951 = conditions: Staphylococcus aureus, S. aureus VA16951; for MBC: read-out: MBC; for MIC: read-out: MIC
Description: as §1, §2, §3, §4

S. enterococcus 0-2-13 = conditions: for MBC / MIC: 0213, S. enterococcus 0-2-13; for MBC: read-out: MBC; for MIC: read-out: MIC
Description: as §1, §2, §3, §4

S. epidermidis (12228) = conditions: Staphylococcus epidermidis, ATCC12228, S. epidermidis ATCC No. 12228; for MBC: read-out: MBC; for MIC: read-out: MIC
Description: as §1, §2, §3, §4

S. epidermidis (17917) = conditions: Staphylococcus epidermidis, ATCC17917, S. epidermidis ATCC No. 17917; for MBC: read-out: MBC; for MIC: read-out: MIC
Description: as §1, §2, §3, §4

S. epidermidis 1-3-H = conditions: Staphylococcus epidermidis, 13H, S. epidermidis 1-3-H; for MBC: read-out: MBC; for MIC: read-out: MIC
Description: as §1, §2, §3, §4

S. epidermidis 2-1-B = conditions: Staphylococcus epidermidis, 21B, S. epidermidis 2-1-B; for MBC: read-out: MBC; for MIC: read-out: MIC
Description: as §1, §2, §3, §4

S. faecalis (11700) = conditions: Enterococcus faecalis, ATCC11700, S. faecalis ATCC No. 11700; for MBC: read-out: MBC; for MIC: read-out: MIC
Description: as §1, §2, §3, §4

S. faecalis 4510 = conditions: Enterococcus faecalis, S. faecalis 4510; for MBC: read-out: MBC; for MIC: read-out: MIC
Description: as §1, §2, §3, §4

S. pneumoniae Type I = conditions: Streptococcus pneumoniae, S. pneumoniae Type I; for MBC: read-out: MBC; for MIC: read-out: MIC
Description: as §1, §2, §3, §4

COc1cccc(OC)c1C(=O)N[C@@H]1C(=O)N2[C@@H]1SC(C)(C)[C@@H]2C(=O)O [Methicillin, 6-(2,6-dimethoxybenzamido)penicillanic acid sodium salt]
MBC (S. aureus (25923)): 2 µg/mL
MIC (S. aureus (25923)): 2 µg/mL
MBC (S. aureus 10-81): 16 µg/mL
MIC (S. aureus 10-81): 8 µg/mL
MBC (S. aureus 13-8-A): 2 µg/mL
MIC (S. aureus 13-8-A): 1 µg/mL
MBC (S. aureus 21-81A): 1 µg/mL
MIC (S. aureus 21-81A): 1 µg/mL
MBC (S. aureus 24-81): 2 µg/mL
MIC (S. aureus 24-81): 1 µg/mL
MBC (S. aureus 34-81): 2 µg/mL
MIC (S. aureus 34-81): 1 µg/mL
MBC (S. aureus 39881): > 125 µg/mL
MIC (S. aureus 39881): 125 µg/mL
MBC (S. aureus 4-81): 2 µg/mL
MIC (S. aureus 4-81): 2 µg/mL
MBC (S. aureus 41-81): 1 µg/mL
MIC (S. aureus 41-81): 1 µg/mL
MBC (S. aureus Glorgio): 4 µg/mL
MIC (S. aureus Glorgio): 2 µg/mL
MBC (S. aureus S-234): 32 µg/mL
MIC (S. aureus S-234): 8 µg/mL
MBC (S. aureus S-500): 32 µg/mL
MIC (S. aureus S-500): 8 µg/mL
MBC (S. aureus Smith): 1 µg/mL
MIC (S. aureus Smith): 1 µg/mL
MBC (S. aureus VA16951): 8 µg/mL
MIC (S. aureus VA16951): 4 µg/mL
MBC (S. enterococcus 0-2-13): 8 µg/mL
MIC (S. enterococcus 0-2-13): 8 µg/mL
MBC (S. epidermidis (12228)): 4 µg/mL
MIC (S. epidermidis (12228)): 4 µg/mL
MBC (S. epidermidis (17917)): 4 µg/mL
MIC (S. epidermidis (17917)): 4 µg/mL
MBC (S. epidermidis 1-3-H): 4 µg/mL
MIC (S. epidermidis 1-3-H): 2 µg/mL
MBC (S. epidermidis 2-1-B): 2 µg/mL
MIC (S. epidermidis 2-1-B): 1 µg/mL
MBC (S. faecalis (11700)): 64 µg/mL
MIC (S. faecalis (11700)): 64 µg/mL
MBC (S. faecalis 4510): 64 µg/mL
MIC (S. faecalis 4510): 64 µg/mL
MBC (S. pneumoniae Type I): ≤ 0.06 µg/mL
MIC (S. pneumoniae Type I): ≤ 0.06 µg/mL

CCn1cc(C(=O)O)c(=O)c2cc(F)c(-c3cc(C)nc(C)c3)cc21 [Win 52,522, 1-ethyl-6-fluoro-1,4-dihydro-7-(2,6-dimethyl-4-pyridinyl)-4-oxo-3-quinolinecarboxylic acid]
MBC (S. aureus (25923)): 0.03 µg/mL (≈ 0.0881 µM)
MIC (S. aureus (25923)): 0.015 µg/mL (≈ 0.0441 µM)
MBC (S. aureus 10-81): 0.03 µg/mL (≈ 0.0881 µM)
MIC (S. aureus 10-81): 0.03 µg/mL (≈ 0.0881 µM)
MBC (S. aureus 13-8-A): 0.03 µg/mL (≈ 0.0881 µM)
MIC (S. aureus 13-8-A): 0.03 µg/mL (≈ 0.0881 µM)
MBC (S. aureus 21-81A): 0.015 µg/mL (≈ 0.0441 µM)
MIC (S. aureus 21-81A): 0.015 µg/mL (≈ 0.0441 µM)
MBC (S. aureus 24-81): 0.03 µg/mL (≈ 0.0881 µM)
MIC (S. aureus 24-81): 0.015 µg/mL (≈ 0.0441 µM)
MBC (S. aureus 34-81): 0.03 µg/mL (≈ 0.0881 µM)
MIC (S. aureus 34-81): 0.03 µg/mL (≈ 0.0881 µM)
MBC (S. aureus 39881): 0.03 µg/mL (≈ 0.0881 µM)
MIC (S. aureus 39881): 0.015 µg/mL (≈ 0.0441 µM)
MBC (S. aureus 4-81): 0.03 µg/mL (≈ 0.0881 µM)
MIC (S. aureus 4-81): 0.015 µg/mL (≈ 0.0441 µM)
MBC (S. aureus 41-81): 0.015 µg/mL (≈ 0.0441 µM)
MIC (S. aureus 41-81): 0.015 µg/mL (≈ 0.0441 µM)
MBC (S. aureus Glorgio): 0.015 µg/mL (≈ 0.0441 µM)
MIC (S. aureus Glorgio): < 0.008 µg/mL
MBC (S. aureus S-234): 0.03 µg/mL (≈ 0.0881 µM)
MIC (S. aureus S-234): 0.015 µg/mL (≈ 0.0441 µM)
MBC (S. aureus S-500): 0.06 µg/mL (≈ 0.176 µM)
MIC (S. aureus S-500): 0.03 µg/mL (≈ 0.0881 µM)
MBC (S. aureus Smith): 0.03 µg/mL (≈ 0.0881 µM)
MIC (S. aureus Smith): 0.03 µg/mL (≈ 0.0881 µM)
MBC (S. aureus VA16951): 0.015 µg/mL (≈ 0.0441 µM)
MIC (S. aureus VA16951): 0.015 µg/mL (≈ 0.0441 µM)
MBC (S. enterococcus 0-2-13): 0.25 µg/mL (≈ 0.735 µM)
MIC (S. enterococcus 0-2-13): 0.25 µg/mL (≈ 0.735 µM)
potency relative to vancomycin (S. enterococcus 0-2-13; in vitro, enterococcus strain 0-2-B): equal in potency
MBC (S. epidermidis (12228)): 0.06 µg/mL (≈ 0.176 µM)
MIC (S. epidermidis (12228)): 0.06 µg/mL (≈ 0.176 µM)
MBC (S. epidermidis (17917)): 0.125 µg/mL (≈ 0.367 µM)
MIC (S. epidermidis (17917)): 0.06 µg/mL (≈ 0.176 µM)
MBC (S. epidermidis 1-3-H): 0.06 µg/mL (≈ 0.176 µM)
MIC (S. epidermidis 1-3-H): 0.06 µg/mL (≈ 0.176 µM)
MBC (S. epidermidis 2-1-B): 0.03 µg/mL (≈ 0.0881 µM)
MIC (S. epidermidis 2-1-B): 0.03 µg/mL (≈ 0.0881 µM)
MBC (S. faecalis (11700)): 0.25 µg/mL (≈ 0.735 µM)
MIC (S. faecalis (11700)): 0.25 µg/mL (≈ 0.735 µM)
MBC (S. faecalis 4510): 0.125 µg/mL (≈ 0.367 µM)
MIC (S. faecalis 4510): 0.125 µg/mL (≈ 0.367 µM)
MBC (S. pneumoniae Type I): 0.25 µg/mL (≈ 0.735 µM)
MIC (S. pneumoniae Type I): 0.25 µg/mL (≈ 0.735 µM)
